Among the data in patent publication US10787444B2, “Compounds for the modulation of myc activity” (Syros Pharmaceuticals, Inc., priority 2015, dated 2020) are IC50 values, retold here.

Assay [1] deals with human small lung cancer cell line H2171. Kind of assay: Cell Viability Assay (ATPlite). It is filed as cell-based. To be noted: read-out: H2171 Activity. A digest of the protocol: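 H2171 cells were plated at 20,000 cells/mL and dosed immediately by pin transfer with a 10-point dose series in DMSO. After three days at 37° C, ATPlite luminescence served as the viability readout.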
On the technique in general: Cellular ATP, detected with luciferase, serves as a proxy for viable cell number.

Assay [2] deals with T1, c-Myc/Max/Ebox DNA (Homo sapiens, UniProt P01106).
T1 construct: his6 (cleaved yes)
T1 sequence (P01106 whole entry): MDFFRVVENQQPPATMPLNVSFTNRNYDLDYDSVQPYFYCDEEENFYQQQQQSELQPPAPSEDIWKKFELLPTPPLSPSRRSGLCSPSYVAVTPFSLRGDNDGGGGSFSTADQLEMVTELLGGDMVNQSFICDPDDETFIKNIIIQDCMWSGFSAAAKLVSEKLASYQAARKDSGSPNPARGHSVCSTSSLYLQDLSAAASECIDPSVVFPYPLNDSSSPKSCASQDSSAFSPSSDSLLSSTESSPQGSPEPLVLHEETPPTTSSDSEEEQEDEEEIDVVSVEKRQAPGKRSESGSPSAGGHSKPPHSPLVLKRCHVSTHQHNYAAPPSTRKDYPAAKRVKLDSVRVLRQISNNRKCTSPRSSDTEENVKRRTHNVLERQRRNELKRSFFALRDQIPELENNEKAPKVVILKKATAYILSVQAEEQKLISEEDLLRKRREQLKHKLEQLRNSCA
Kind of assay: c-Myc/Max/Ebox DNA AlphaScreen Assay. Format: binding. The following applies: calculated IC50 class. A digest of the protocol:
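Compounds were preincubated with free c-Myc (20 nM), biotinylated single-Ebox DNA (10 nM) and Ni acceptor beads before his6-Max (5 nM) and streptavidin donor beads were added. Buffer was 50 mM HEPES pH 8.0, 150 mM NaCl, BSA, Tween20, glycogen and DTT, with DMSO ≤2%. After 2 h incubation, AlphaScreen signal was read at 680 nm excitation and 520–620 nm emission.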

Setting [3] is: Table 2, compounds of FIG. 1, H2171 cells, three days, ATPlite, calculated IC50 class.
Setting [4] is: Homo sapiens, NCI-H2171, 72 h, Table 2, compounds of FIG. 1, H2171 cells, three days, ATPlite, calculated IC50 class.
The mark [5] stands for this setting: Homo sapiens, NCI-H2171, 72 h, Table 3, compounds of FIG. 2, H2171 cells, three days, ATPlite, calculated IC50 class.

Read-outs that look alike come from different tables or passages of the source.

Take `CC[C@H](C)NCCC(=O)Nc1sc2c(c1-c1nc3ccccc3s1)CC(C)NC2C` (single isomer, unassigned) [Compound 624]: the IC50 in assay [1] (setting [3]) is under 300 nM; in assay [2] (Table 2, compounds of FIG. 1), under 300 nM.
As to `CCC(C)N(C)CCC(=O)Nc1sc2c(c1-c1nc3ccccc3s1)CCN(C(C)C)C2` (centres unmarked) [Compound 122], the IC50 in assay [1] (setting [3]) was 300 to 1000 nM; in assay [2] (Table 2, compounds of FIG. 1), under 300 nM.
With `CC(C)NCCC(=O)Nc1sc2c(c1-c1nc3cc(NS(C)(=O)=O)ccc3s1)CCNC2` [compound 581], the IC50 in assay [1] (setting [4]) was under 300 nM; in assay [2] (Table 2, compounds of FIG. 1) it was under 300 nM.
On to `CC[C@H](C)NCCC(=O)Nc1sc2c(c1-c1nc3ccccc3s1)CC(C)NC2C` (single isomer, unassigned) [Compound 621], for which the IC50 is 1000 to 10000 nM in assay [1] (setting [3]) and over 10000 nM in assay [2] (Table 2, compounds of FIG. 1).
For `CCC(C)NCCC(=O)Nc1sc2c(c1-c1nc3cc(F)ccc3s1)CCN(C(C)C)C2` (centres unmarked) [Compound 126, 3-(sec-butylamino)-N-(3-(5-fluorobenzo[d]thiazol-2-yl)-6-isopropyl-4,5,6,7-tetrahydrothieno[2,3-c]pyridin-2-yl)propanamide], the IC50 in assay [1] (setting [4]) is under 300 nM; in assay [2] (Table 2, compounds of FIG. 1), under 300 nM.
As for `O=C(CCNCCO)Nc1sc2c(c1-c1nc3ccccc3s1)CCNC2` [Compound 310, N-(3-(Benzo[d]thiazol-2-yl)-4,5,6,7-tetrahydrothieno[2,3-c]pyridin-2-yl)-3-((2-hydroxyethyl)amino)propanamide], the IC50 is under 300 nM in assay [1] (setting [4]) and under 300 nM in assay [2] (Table 2, compounds of FIG. 1).
On to `C=Cc1cccc2sc(-c3c(NC(=O)CCNCCOC)sc4c3CCNC4)nc12` [Compound 583, 3-(2-methoxyethylamino)-N-(3-(4-vinylbenzo[d]thiazol-2-yl)-4,5,6,7-tetrahydrothieno[2,3-c]pyridin-2-yl)propanamide bis(2,2,2-trifluoroacetate)], for which the IC50 is under 300 nM in assay [1] (setting [4]) and under 300 nM in assay [2] (Table 2, compounds of FIG. 1).
`COCCNCCC(=O)Nc1sc2c(c1-c1nc3cc(-c4cnoc4)ccc3s1)CCNC2` [compound 481]: the IC50 in assay [1] (setting [4]) was under 300 nM; in assay [2] (Table 2, compounds of FIG. 1), under 300 nM.
With `CC(=O)Nc1sc2c(c1-c1nc3ccccc3s1)CCC(NC1CCNCC1)C2` (centres unmarked) [Compound 227, N-(3-(benzo[d]thiazol-2-yl)-6-(piperidin-4-ylamino)-4,5,6,7-tetrahydrobenzo[b]thiophen-2-yl)acetamide], the IC50 in assay [1] (setting [5]) is under 300 nM; in assay [2] (Table 3, compounds of FIG. 2), over 10000 nM.
For `CC[C@@H](C)NCCC(=O)Nc1sc2c(c1-c1nc3ccccc3s1)CCNC2` [Compound 153, (R)—N-(3-(benzo[d]thiazol-2-yl)-4,5,6,7-tetrahydrothieno[2,3-c]pyridin-2-yl)-3-(sec-butylamino)propanamide], the IC50 was under 300 nM in assay [1] (setting [4]) and 300 to 1000 nM in assay [2] (Table 2, compounds of FIG. 1).
In the same order, the values of `COCCNCCC(=O)Nc1sc2c(c1-c1nc3ccccc3s1)CC(C)NC2C` (single isomer, unassigned) [Compound 508, N-(3-(Benzo[d]thiazol-2-yl)-5,7-dimethyl-4,5,6,7-tetrahydrothieno[2,3-c]pyridin-2-yl)-3-((2-methoxyethyl)amino)propanamide] are under 300 nM and 1000 to 10000 nM.
As to `COc1ccc2sc(-c3c(NC(=O)CCNC(C)C)sc4c3CCNC4)nc2c1` [compound 316], the IC50 in assay [1] (setting [4]) was under 300 nM; in assay [2] (Table 2, compounds of FIG. 1), under 300 nM.
Consider `CC[C@H](C)NCCC(=O)Nc1sc2c(c1-c1nc3cc(C(F)(F)F)ccc3s1)CC(C)NC2C` (single isomer, unassigned) [Compound 584], for which the IC50 in assay [1] (setting [4]) was under 300 nM; in assay [2] (Table 2, compounds of FIG. 1) it was under 300 nM.
For `COCCNCCC(=O)Nc1sc2c(c1-c1nc3ccc(-c4cccnc4)cc3s1)CC(C)NC2C` (single isomer, unassigned) [Compound 520, N-(5,7-Dimethyl-3-(6-(pyridin-3-yl)benzo[d]thiazol-2-yl)-4,5,6,7-tetrahydrothieno[2,3-c]pyridin-2-yl)-3-((2-methoxyethyl)amino)propanamide], the IC50 in assay [1] (setting [3]) is 300 to 1000 nM; in assay [2] (Table 2, compounds of FIG. 1) it was 1000 to 10000 nM.
In the case of `CC(=O)Nc1sc2c(c1-c1nc3cc4c(cc3s1)OCO4)CCN(C(C)C)C2` [Compound 236, N-(3-([1,3]Dioxolo[4′,5′:4,5]benzo[1,2-d]thiazol-6-yl)-6-isopropyl-4,5,6,7-tetrahydrothieno[2,3-c]pyridin-2-yl)acetamide], the IC50 was 300 to 1000 nM in assay [1] (setting [5]) and 300 to 1000 nM in assay [2] (Table 3, compounds of FIG. 2).
As for `CC(C)NCCC(=O)Nc1sc2c(c1-c1nc3cc(C4=CCOCC4)ccc3s1)CCNC2` [compound 165], the IC50 in assay [1] (setting [4]) is under 300 nM; in assay [2] (Table 2, compounds of FIG. 1), under 300 nM.
In the case of `CC(C)N1CCc2c(sc(NC(=O)CCN3C(=O)C=CC3=O)c2-c2nc3ccccc3s2)C1` [Compound 133, N-(3-(benzo[d]thiazol-2-yl)-6-isopropyl-4,5,6,7-tetrahydrothieno[2,3-c]pyridin-2-yl)-3-(2,5-dioxo-2,5-dihydro-1H-pyrrol-1-yl)propanamide], the IC50 in assay [1] (setting [4]) is 1000 to 10000 nM; in assay [2] (Table 2, compounds of FIG. 1), over 10000 nM.
For `COCCNCCC(=O)Nc1sc2c(c1-c1nc3cc(C(F)(F)F)ccc3s1)CC(C)NC2` (single isomer, unassigned) [Compound 550, 3-((2-Methoxyethyl)amino)-N-(5-methyl-3-(5-(trifluoromethyl)benzo[d]thiazol-2-yl)-4,5,6,7-tetrahydrothieno[2,3-c]pyridin-2-yl)propanamide], the IC50 in assay [1] (setting [4]) was under 300 nM; in assay [2] (Table 2, compounds of FIG. 1), under 300 nM.
Consider `CC(=O)Nc1sc2c(c1-c1nc3cc(N(C)C)ccc3s1)CCNC2` [Compound 230, N-(3-(5-(dimethylamino)benzo[d]thiazol-2-yl)-4,5,6,7-tetrahydrothieno[2,3-c]pyridin-2-yl)acetamide], for which the IC50 in assay [1] (setting [5]) is over 10000 nM; in assay [2] (Table 3, compounds of FIG. 2) it was 1000 to 10000 nM.
In the case of `CC(C)CNCCC(=O)Nc1sc2c(c1-c1nc3ccccc3s1)CCN(C(C)C)C2` [Compound 552, N-(3-(Benzo[d]thiazol-2-yl)-6-isopropyl-4,5,6,7-tetrahydrothieno[2,3-c]pyridin-2-yl)-3-(isobutylamino)propanamide], the IC50 is under 300 nM in assay [1] (setting [4]) and under 300 nM in assay [2] (Table 2, compounds of FIG. 1).
With `CC(C)N1CCc2c(sc(NC(=O)CCN3CCC3)c2-c2nc3ccccc3s2)C1` [Compound 541, 3-(Azetidin-1-yl)-N-(3-(benzo[d]thiazol-2-yl)-6-isopropyl-4,5,6,7-tetrahydrothieno[2,3-c]pyridin-2-yl)propanamide], the IC50 in assay [1] (Homo sapiens, NCI-H2171, 72 h) was under 300 nM; in assay [2] (Table 2, compounds of FIG. 1), 300 to 1000 nM.
Turning to `CC[C@H](C)NCCC(=O)Nc1sc2c(c1-c1nc3ccccc3s1)CCN(C1CC1)C2` [Compound 596, (S)—N-(3-(benzo[d]thiazol-2-yl)-6-cyclopropyl-4,5,6,7-tetrahydrothieno[2,3-c]pyridin-2-yl)-3-(sec-butylamino)propanamide], the IC50 was 300 to 1000 nM in assay [1] (setting [4]) and over 10000 nM in assay [2] (Table 2, compounds of FIG. 1).
Consider `CC(C)NCCC(=O)Nc1sc2c(c1-c1nc3ccccc3s1)CCN(C(C)C)C2` [Compound 132, N-(3-(benzo[d]thiazol-2-yl)-6-isopropyl-4,5,6,7-tetrahydrothieno[2,3-c]pyridin-2-yl)-3-(isopropylamino)propanamide], for which the IC50 in assay [1] (setting [4]) was 300 to 1000 nM; in assay [2] (Table 2, compounds of FIG. 1) it was 300 to 1000 nM.
With `CC(C)NCCC(=O)Nc1sc2c(c1-c1nc3c(-c4cccnc4)cccc3s1)CCNC2` [compound 534], the IC50 is under 300 nM in assay [1] (setting [4]) and under 300 nM in assay [2] (Table 2, compounds of FIG. 1).
Turning to `COCCNCCC(=O)Nc1sc2c(c1-c1nc3ccc(-c4ccc(N5CCNCC5)nc4)cc3s1)CCNC2` [compound 504], the IC50 was under 300 nM in assay [1] (setting [4]) and under 300 nM in assay [2] (Table 2, compounds of FIG. 1).
With `COCCNCCC(=O)Nc1sc2c(c1-c1nc3ccc(-c4cccnc4)cc3s1)CC(C)NC2C` (single isomer, unassigned) [Compound 519, N-(5,7-Dimethyl-3-(6-(pyridin-3-yl)benzo[d]thiazol-2-yl)-4,5,6,7-tetrahydrothieno[2,3-c]pyridin-2-yl)-3-((2-methoxyethyl)amino)propanamide], the IC50 is under 300 nM in assay [1] (setting [4]) and under 300 nM in assay [2] (Table 2, compounds of FIG. 1).
For `CC(C)NCCC(=O)Nc1sc2c(c1-c1nc3cc(C(=O)Nc4ccccc4)ccc3s1)CCNC2` [Compound 505, 2-(2-(3-(Isopropylamino)propanamido)-4,5,6,7-tetrahydrothieno[2,3-c]pyridin-3-yl)-N-phenylbenzo[d]thiazole-5-carboxamide], the IC50 in assay [1] (setting [4]) was under 300 nM; in assay [2] (Table 2, compounds of FIG. 1), 1000 to 10000 nM.
On to `CC(C)NCCC(=O)Nc1sc2c(c1-c1nc3ccc(C4=CCNCC4)cc3s1)CCNC2` [compound 194], for which the IC50 is under 300 nM in assay [1] (setting [4]) and under 300 nM in assay [2] (Table 2, compounds of FIG. 1).
`COCCNCCC(=O)Nc1sc2c(c1-c1nc3cc(-c4ccnc(NC(C)=O)c4)ccc3s1)CCNC2` [compound 342]: the IC50 was under 300 nM in assay [1] (setting [4]) and under 300 nM in assay [2] (Table 2, compounds of FIG. 1).
As to `O=C(O)CCOCCOCCOCCOCCOCCOCCNCCC(=O)Nc1sc2c(c1-c1nc3ccccc3s1)CCNC2` [Compound 623], the IC50 in assay [1] (setting [4]) was under 300 nM; in assay [2] (Table 2, compounds of FIG. 1), under 300 nM.
Regarding `CC(=O)Nc1sc2c(c1-c1nc3ccc(C)cc3s1)CCNC2` [Compound 224, N-(3-(6-methylbenzo[d]thiazol-2-yl)-4,5,6,7-tetrahydrothieno[2,3-c]pyridin-2-yl)acetamide], the IC50 is over 10000 nM in assay [1] (setting [5]) and 300 to 1000 nM in assay [2] (Table 3, compounds of FIG. 2).
